Laboratory results taken from patent US6774144B1, “Methods and formulations for the treatment of infectious bursal disease in avian subjects” (The University of North Carolina at Chapel Hill, priority 1999, dated 2004).

Tests used:
[1] = tested on: APHIS strain IBDV; test: Leghorn drug study (Example 13); format: in vivo, Leghorns; conditions: for protection against IBDV (rank order): 100 EID APHIS IBDV, one mL of 4 mg/ml orally at challenge, 24 and 48 hours PI, necropsy three days post-challenge
Protocol: The procedure according to Example 12 was carried out with the following modifications: the drugs SW066, DB197, DB528, DB203 and DAP092 were tested in three week old Leghorns for protection against 100 EID of APHIS strain IBDV. The drugs were suspended in histidine-saline and used at a concentration of 4 mg/ml. One mL of drug was administered orally on the day of challenge (30 minutes prior to challenge), 24 hours PI and 48 hours PI. Birds were euthanised by CO2 inhalation and necropsied at three days post-challenge. Each drug and placebo cohort consisted of eight leghorns. Birds were weighed and sorted on the day of challenge to co-mingle birds of different weights and monitor drug dose per body weight. Birds were raised in isolation units. Each unit held 12 birds, two birds for each of the six cohorts (i.e., placebo, SW066, DB197, DB528, DB203 and DAP092). In addition, 12 uninfected birds were housed in a separate isolation unit.
The viral load of the bursa was determined by antigen capture ELISA, as described in Example 2, while absolute lymphocyte cell counts were determined by hemocytometer.

[2] = tested on: APHIS isolate of IBDV; test: In vivo drug treatment of IBDV-challenged SPF leghorn chickens (Example 10); conditions: for appearance of bursas upon necropsy: 20 mg/kg nares/cloaca; for appearance of bursas upon necropsy / Lymphocyte Population Per Gram of Bursal tissue, Percentage Uninfected Control: three days; for Lymphocyte Population Per Gram of Bursal tissue, Percentage Uninfected Control: 100 EID APHIS IBDV at three weeks of age, 20 mg/kg, half in the nares, half in the cloaca; for lymphocyte populations: three days after infection
Protocol: SPF leghorn chickens were challenged at three weeks of age with an 100 EID APHIS isolate of IBDV. Approximately 12 birds were contained in an isolator unit with four units being employed. In each isolator unit, two birds received either drug or a placebo. One unit contained uninfected controls. The birds are treated with the drugs SW066, DAP092, DB453, DB197, and DB203 for three days. Half of the drug dosage was administered in the nares, while the second half was administered in the cloaca, at a dosage of 20 mg/kg. At necropsy, the birds were weighed, their bursa removed, weighed, and ground with a tissue homogenizer. The ground bursa material was evaluated for lymphocyte counts and viral load.

[3] = tested on: cells; test: MTT assay for cell viability (cell toxicity); format: cell-based; conditions: highest concentration tested 1 mM
Protocol: BABIM, SW066, and DAP092 were assessed for cell toxicity using the MTT assay for cell viability described in T. Mossman, J. Immunol. Methods 65, 55-63 (1983). […] 10 μl of MTT reagent was added to each wall and incubated for four hours at 38° C. Acid-isopropanol was added to stop the reaction and plates were read within one hour at 570 nm and 630 nm. The 630 nm reading was subtracted from the 570 nm reading. No toxicity was reported for BABIM.

[4] = tested on: Delaware Variant A strain of IBDV; test: In vitro IBDV replication assay in chick embryo fibroblasts (viral antigen capture ELISA); conditions: compounds maintained in the culture medium throughout
[5] = tested on: APHIS IBDV strain; test: Evaluation of drug effect to prevent or inhibit IBD, SW066 intravenous and prodrug oral (Example 12); format: in vivo, chicks
Protocol: The procedure according to Example 11 was carried out, with a variation in which chicks were placed in six groups of ten birds each, as follows: (1) no virus control (oral placebo), (2) no virus control (SW066 intravenous), (3) no virus control (prodrug of SW066 oral), (4) APHIS IBDV strain 130 EID (oral placebo), (5) APHIS IBDV strain 130 EID (SW066 intravenous), and (6) APHIS IBDV strain 130 EID (prodrug of SW066 oral). The birds were challenged at three weeks of age with 100 μl of APHIS strain divided between the eye and nares. Drug was administered intravenously or orally. The prodrug version of SW066 was used via the oral route to enhance absorption. Daily drug treatment began the same day and thirty minutes prior to challenge. After seven days, survivors were sacrificed and necropsied.

[6] = tested on: IBDV Variant A; format: cell-based, infectious bursal disease virus; conditions: 0.1 mM drug
[7] = tested on: IBDV; format: cell-based, infectious bursal disease virus
[8] = tested on: IBDV; test: Trypsin competition experiment; format: cell-based, infectious bursal disease virus; conditions: trypsin 1 mg/ml added to the cells in culture
Protocol: It is known that the addition of trypsin can enhance the attachment and penetration of respiratory syncytial virus and rotavirus. A trypsin competition experiment was performed in order to confirm that the activity of the inventive compounds of the present invention is not the result of protease-mediated virus attachment or penetration, as follows: trypsin (1 mg/ml) was added to the cells in culture described above in Example 6.

[9] = tested on: APHIS IBDV strain; test: Evaluation of drug effect to prevent or inhibit IBD, oral SW066 (Example 11); format: in vivo, chicks
Protocol: Chicks were placed in four groups of nine birds each. The four groups were: (1) no virus control (placebo), (2) no virus control (treated with SW066), (3) APHIS IBDV strain at 130 EID (placebo), and (4) APHIS IBDV strain at 130 EID (treated with SW066). The birds were challenged at two weeks of age with 10 μL of the APHIS strain divided between the eye and nares. The drug was administered orally, one mL at a concentration of five mg/mL. […] Daily drug treatment began the same day and 30 minutes prior to challenge. After seven days, survivors were sacrificed and necropsied.
The virus is believed to cause necrosis in the bursa and to reach a plateau of virus level at three days post-challenge. As the inflammation begins to subside, the organ decreases in size and is severely atrophied at seven to ten days post-challenge. The bursa weight is accordingly a measure of bursal disease severity and was used in this experiment to detect differences between treatment groups.

[10] = tested on: IBDV; test: Virucidal effect: viability of virions produced in the presence of drug, second set of CEF cultures; format: cell-based, infectious bursal disease virus
Protocol: IBDV-infected cells were treated with varying concentrations (0.01 μM, 0.1 μM, 1 μM, 10 μM and 100 μM) of SW066 for 24 hours. After 24 hours, SW066 was washed away from the cell. After 72 hours of total incubation time (i.e., after the life cycle of IBDV is predicted to be complete), the resulting virions were harvested, as described above.
In order to determine if the virions produced in the presence of drug are viable, varying dilutions of these viral preparations were used to inoculate a second set of CEF cultures. Concentrations of the viral dilutions were as follows: 1.00E-10, 1.00E-09, 1.00E-08, 1.00E-07, 1.00E-06 and 1.00E-05. After 72 hours of incubation, cells were treated by a freeze-thaw method to harvest viral particles, and were assayed by ELISA as described in Example 2.

COc1cc(C2=NCCN2)ccc1-c1ccnc(-c2ccc(C3=NCCN3)cc2)n1 [DB203]
protection against IBDV (rank order) [1]: DB197>DB203>DB528>DAP092>SW066
appearance of bursas upon necropsy [2]: appeared identical to those from the uninfected control group
Lymphocyte Population Per Gram of Bursal tissue, Percentage Uninfected Control [2]: 51.3 Percentage Uninfected Control
lymphocyte populations [2]: maintenance of relatively normal lymphocyte populations

Cc1cnc(-c2ccc(C3=NCCN3)cc2)nc1-c1ccc(C2=NCCN2)cc1 [DB197]
protection against IBDV (rank order) [1]: the most protection
lymph per bursa cell number versus uninfected controls ([1]; t-test, p-value=0.01): significantly different from uninfected controls
lymph per bursa cell number (rank among groups) ([1]; three days post-challenge): the highest
appearance of bursas upon necropsy [2]: appeared identical to those from the uninfected control group
Lymphocyte Population Per Gram of Bursal tissue, Percentage Uninfected Control [2]: 60.5 Percentage Uninfected Control
lymphocyte populations [2]: maintenance of relatively normal lymphocyte populations

N=C(N)c1ccc2nc(Cc3nc4ccc(C(=N)N)cc4[nH]3)[nH]c2c1 [BABIM]
cell toxicity (MTT assay) [3]: No toxicity
inhibition of IBDV replication (virion formation) [4]: most significant decrease of virion formation

N=C(N)c1ccc2oc3ccc(C(=N)N)cc3c2c1 [SW066]
bursa weight of survivors, difference between groups ([5]; SW066 intravenous or prodrug oral, seven days): No statistical significant difference
mortality ([5]; SW066 intravenous, APHIS IBDV 130 EID, ten birds, placebo 40%): 10%
effectiveness in decreasing virion formation (comparison of the three compounds) [6]: most effective
effect in reducing IBDV production ([6]; even at the high concentrations of virus): significant effect in reducing IBDV production
cytopathic effect (CPE), inverted microscope ([6]; highest concentration of virus): Very little CPE
cell toxicity (MTT assay) [3]: some toxicity may be associated
protection against IBDV (rank order) [1]: DB197>DB203>DB528>DAP092>SW066
virus production when drug is added after infection ([7]; added after 12 hours): very little potential effect on virus production
virus replication when drug is added after infection ([7]; added prior to the 12 hour incubation time point): potentially substantial inhibition of virus replication
virus production when drug is removed by washing ([7]; drug remains in the culture past the one hour time point): significant decrease in virus production
virion formation when drug is removed by washing ([7]; removed prior to one hour): little or no affect on virion formation
inhibition of IBDV replication (virion formation) [4]: most significant decrease of virion formation
effect of the presence of trypsin on the drug's activity [8]: not found to inhibit the drug's activity
Lymphocyte Population Per Gram of Bursal tissue, Percentage Uninfected Control [2]: 4.3 Percentage Uninfected Control
bursa weights versus placebo group ([9]; 130 EID APHIS IBDV, oral one mL of five mg/mL daily, seven days, p=0.05): higher in the drug treatment group compared to the placebo group
post-challenge titers, infected drug versus placebo group ([9]; 130 EID APHIS IBDV, oral, seven days): not significantly different
deaths in the challenge group ([9]; groups of nine birds, same number died with placebo): Two birds died
bursa histology score ([9]; infected birds, placebo group all scored four, remaining drug birds scored four): two birds in the drug group (n=7) were scored as three
protection from IBDV induced B-cell depletion ([9]; oral, 130 EID): some protection
long term drug effect in the second set of cultures ([10]; 10 μM of drug): long term drug effect was also observed for some virus dilutions
duration of the virucidal effect ([10]; drug for 24 hours then washed away, virions harvested at 72 hours): not transient
virus propagation in the second set of cultures ([10]; first set of cultures treated at 100 μM, with the exception of the 10^-5 dilution of virus): did not propagate virus
lowest concentration of drug that demonstrated anti-viral activity ([10]; with the 10^-10 dilution of virus): 1 µM
